{"source": "patent US10813914B2", "about": "“Composition for controlling microsporidia in fishes and method for controlling microsporidia in fishes using same” (MARUHA NICHIRO CORPORATION, priority 2016, dated 2020)", "key": {"Heterosporis anguillarum": {"tested_on": "Heterosporis anguillarum", "conditions": "beko disease of eels, Non-Patent Document 2; cited from earlier work"}, "microsporidia": {"tested_on": "microsporidia", "conditions": "culture test, Non-Patent Documents 3 to 7; cited from earlier work"}, "Glugea plecoglossi": {"tested_on": "Glugea plecoglossi", "conditions": "glugeosis of Ayu, Non-Patent Document 1; cited from earlier work"}, "[1]": {"tested_on": "microsporidian cyst (beko cyst), beko disease", "assay": "Prevention test of beko disease in Kanpachi using triclabendazole (1-8)", "assay_type": "in vivo, “Kanpachi” (great amberjack)", "conditions": "40 mg/kg Bw oral, 6 times/week", "protocol": "A Prevention test of the beko disease in “Kanpachi” was carried out using triclabendazole. The preliminary test was performed according to the following procedure:\nTest number: Live 1000 fishes (each initial body weight: 50 g)\n(§1) Administration method: oral administration (feed together with spreading agent)\nDrug used: triclabendazole (compound represented by the above-described formula (10))\nAdministration amount: 40 mg/kg Bw (40 mg per kg of fish body weight)\n(§2) Administration interval: 6 times/week\nSampling test procedure: same as in the above-described 1-1"}, "[2]": {"tested_on": "microsporidian cyst (beko cyst), beko disease", "assay": "Prevention test of beko disease in Mojako using fenbendazole (1-1)", "assay_type": "in vivo, “Mojako” (yellowtail larva)", "conditions": "20 mg/kg Bw oral, 6 times/week, 6 weeks, 10 fishes tested; for Positive average per fish (average number of beko cyst per fish): p < 0.05 vs control", "protocol": "1-1: Prevention Test of Beko Disease in “Mojako” Using Fenbendazole\nThe prevention test was conducted according to the following procedure.\n(§3) Test number: Live 1000 fishes (each initial body weight: 12 g)\nas §1\nDrug used: fenbendazole (compound represented by the above-described formula (1))\n(§4) Administration amount: 20 mg/kg Bw (20 mg per kg of fish body weight)\nInterval between administration: 6 times/week\nA sampling test was carried out according to the following procedure:\nSix weeks after the start of administration, each 10 fishes of “Mojako” were taken out from each test group (a control group (the test was conducted under the same conditions as the above-described test conditions, except that the feed fed contained no fenbendazole) and a fenbendazole group), and each fish was cut into three pieces. It was then visually tested whether the microsporidian cyst (beko cyst) was found in the pieces. When the beko cyst was observed, it was judged as positive and the results were accumulated. Regarding the beko cyst that could be confirmed with the naked eye, the number was confirmed and the average infection number per one fish was determined."}, "[3]": {"tested_on": "microsporidian cyst (beko cyst), beko disease", "assay": "Prevention test of beko disease in Mojako using flubendazole (1-2)", "assay_type": "in vivo, “Mojako” (yellowtail larva)", "conditions": "20 mg/kg Bw oral, 6 times/week, 4 weeks, 10 fishes tested; for Positive average per fish (average number of beko cyst per fish): p < 0.05 vs control", "protocol": "1-2. Prevention Test of Beko Disease in “Mojako” Using Flubendazole\nA preliminary test was carried out according to the following procedure:\nas §3, §1\nDrug used: flubendazole (compound represented by the above-described formula (6))\nas §4, §2\nSampling test procedure: same as above 1-1"}}, "note": "Marks after values point to notes of the source that are not given here."}
{"smiles": "CO[C@@H]1[C@H](OC(=O)/C=C/C=C/C=C/C=C/C(=O)O)CC[C@]2(CO2)[C@H]1[C@@]1(C)O[C@@H]1CC=C(C)C", "note": "[fumagillin]", "values": [{"measurement": "Therapeutic efficacy", "setting": "Heterosporis anguillarum", "result": "high therapeutic efficacy was recognized"}, {"measurement": "Antimicrobial activity against microsporidia", "setting": "microsporidia", "result": "high antimicrobial activity"}, {"measurement": "Therapeutic efficacy", "setting": "Glugea plecoglossi", "result": "high therapeutic efficacy was recognized"}]}
{"smiles": "CSc1nc2cc(Cl)c(Oc3cccc(Cl)c3Cl)cc2[nH]1", "note": "[Triclabendazole, triclabendazole]", "values": [{"measurement": "Positive fishes (beko cyst) / fishes sampled", "setting": "[1]; 8 Weeks, p < 0.001, 40 mg/kg", "result": "0/50***"}, {"measurement": "Positive fishes (beko cyst) / fishes sampled", "setting": "[1]; 8 Weeks, p < 0.001, listed as triclabendazole, 40 mg/kg", "result": "significantly suppressed generation of the beko cyst"}, {"measurement": "Positive fishes (beko cyst) / fishes sampled", "setting": "[1]; at administration start time", "result": "0/20"}]}
{"smiles": "COC(=O)Nc1nc2cc(Sc3ccccc3)ccc2[nH]1", "note": "[Fenbendazole, fenbendazole]", "values": [{"measurement": "Number of Beko cyst", "setting": "[2]", "result": 30}, {"measurement": "Number of positive fishes", "setting": "[2]", "result": 6}, {"measurement": "Positive average per fish (average number of beko cyst per fish)", "setting": "[2]", "result": "3.5 ± 3.83"}, {"measurement": "Positive average per fish (average number of beko cyst per fish)", "setting": "[2]; listed as fenbendazole", "result": "3.5±3.83"}]}
{"smiles": "COC(=O)Nc1nc2cc(C(=O)c3ccc(F)cc3)ccc2[nH]1", "note": "[Flubendazole, flubendazole]", "values": [{"measurement": "Number of Beko cyst", "setting": "[3]", "result": 10}, {"measurement": "Number of positive fishes", "setting": "[3]", "result": 5}, {"measurement": "Positive average per fish (average number of beko cyst per fish)", "setting": "[3]", "result": "1.0 ± 1.1"}, {"measurement": "Positive average per fish (average number of beko cyst per fish)", "setting": "[3]; listed as flubendazole", "result": "1.0±1.1"}]}
